Data published in ChEMBL document CHEMBL5247656, “Discovery of a Potent, Cooperative, and Selective SOS1 PROTAC ZZ151 with In Vivo Antitumor Efficacy in KRAS-Mutant Cancers” (J Med Chem, 2023).
Active and inactive are the calls of the source. No cut-off for these calls is given here.

Legend:
CAL-62 = experiment: Antiproliferative activity against human CAL-62 cells harboring KRAS G12R mutant assessed as inhibition of cell proliferation incubated for 7 days by CellTiterGlo-3D proliferation assay; format: functional, cell-based; settings: time 7.0 day
[1] = target: von Hippel-Lindau disease tumor suppressor/Son of sevenless homolog 1/Elongin-B/Elongin-C (Homo sapiens) (UniProt Q07889+P40337+Q15370+Q15369); experiment: Binding affinity to GST tagged human SOS1(564 to 1049 residues)-6his tagged human VHL (54 to 213 residues)-human ElonginC (17 to 112 residues)-human ElonginB (1 to 104 residues) expressed in Escherichia coli BL21 (DE3) cells assessed as ternary complex formation by measuring maximal HTRF signals incubated for 15 mins by HTRF analysis
[2] = target: T1, Son of sevenless homolog 1 (Homo sapiens, UniProt Q07889); experiment: Binding affinity to GST-tagged human SOS1 (564 to 1049 residues) expressed in Escherichia coli BL21 (DE3) cells assessed as ternary complex formation by measuring dissociation constant incubated for 15 mins in the presence of 6His tagged human VCB by fluorescence polarization-based displacement assay
T1 sequence (Q07889 whole entry): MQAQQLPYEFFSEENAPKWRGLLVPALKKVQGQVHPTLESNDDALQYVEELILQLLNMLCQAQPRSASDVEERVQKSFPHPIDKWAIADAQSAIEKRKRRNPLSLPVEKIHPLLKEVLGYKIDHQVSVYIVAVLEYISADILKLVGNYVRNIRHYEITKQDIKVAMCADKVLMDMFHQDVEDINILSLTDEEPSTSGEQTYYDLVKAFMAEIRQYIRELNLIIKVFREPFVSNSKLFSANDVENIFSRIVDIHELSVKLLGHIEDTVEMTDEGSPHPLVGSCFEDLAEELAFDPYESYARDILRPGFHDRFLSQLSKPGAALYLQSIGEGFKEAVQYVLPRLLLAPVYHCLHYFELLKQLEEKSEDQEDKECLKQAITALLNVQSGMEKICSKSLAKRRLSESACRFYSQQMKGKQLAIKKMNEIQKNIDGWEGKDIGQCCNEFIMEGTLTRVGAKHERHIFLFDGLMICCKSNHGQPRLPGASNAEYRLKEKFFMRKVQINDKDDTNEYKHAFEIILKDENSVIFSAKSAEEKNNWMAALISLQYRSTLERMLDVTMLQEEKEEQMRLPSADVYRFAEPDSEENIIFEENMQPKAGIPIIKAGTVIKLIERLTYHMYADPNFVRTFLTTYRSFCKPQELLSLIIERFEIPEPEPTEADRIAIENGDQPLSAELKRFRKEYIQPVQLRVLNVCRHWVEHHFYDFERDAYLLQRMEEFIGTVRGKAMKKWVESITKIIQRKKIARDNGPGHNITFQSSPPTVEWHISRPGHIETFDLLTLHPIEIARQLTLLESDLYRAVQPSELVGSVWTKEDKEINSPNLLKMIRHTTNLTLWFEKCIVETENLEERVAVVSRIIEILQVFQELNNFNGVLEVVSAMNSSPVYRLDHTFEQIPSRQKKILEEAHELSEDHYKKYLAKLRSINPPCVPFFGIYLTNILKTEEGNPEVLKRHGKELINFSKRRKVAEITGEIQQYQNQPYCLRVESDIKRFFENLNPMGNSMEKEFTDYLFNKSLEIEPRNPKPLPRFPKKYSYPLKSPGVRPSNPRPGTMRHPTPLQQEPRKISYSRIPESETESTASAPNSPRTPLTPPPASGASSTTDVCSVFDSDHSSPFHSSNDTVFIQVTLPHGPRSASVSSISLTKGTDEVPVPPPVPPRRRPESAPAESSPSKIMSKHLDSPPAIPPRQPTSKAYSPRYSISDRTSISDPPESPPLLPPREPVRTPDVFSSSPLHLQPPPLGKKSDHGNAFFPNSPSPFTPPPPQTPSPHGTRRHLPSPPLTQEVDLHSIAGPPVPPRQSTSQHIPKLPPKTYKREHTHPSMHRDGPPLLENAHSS

[3] = target: T2, von Hippel-Lindau disease tumor suppressor/Son of sevenless homolog 1 (Homo sapiens) (UniProt Q07889+P40337); experiment: PROTAC activity at VHL/SOS1 in human SK-LU-1 cells harboring KRAS G12D mutant assessed as induction of SOS1 degradation by measuring maximal efficacy at 1 to 2000 nM incubated for 24 hrs by Immunoblot analysis relative to control; format: cell-based; settings: dose 1-2000 nM
[4] = target: T2, von Hippel-Lindau disease tumor suppressor/Son of sevenless homolog 1 (Homo sapiens); experiment: PROTAC activity at VHL/SOS1 in human SNU1 cells harboring KRAS G12D mutant assessed as induction of SOS1 degradation by measuring maximal efficacy at 1 to 2000 nM incubated for 24 hrs by Immunoblot analysis relative to control; format: cell-based; settings: dose 1-2000 nM
[5] = target: T2, von Hippel-Lindau disease tumor suppressor/Son of sevenless homolog 1 (Homo sapiens); experiment: PROTAC activity at VHL/SOS1 in human NCI-H441 cells harboring KRAS G12V mutant assessed as induction of SOS1 degradation by measuring maximal efficacy at 1 to 2000 nM incubated for 24 hrs by Immunoblot analysis relative to control; format: cell-based; settings: dose 1-2000 nM
PANC-1 = experiment: Antiproliferative activity against human PANC-1 cells harboring KRAS G12D mutant assessed as inhibition of cell proliferation incubated for 7 days by CellTiterGlo-3D proliferation assay; format: functional, cell-based; settings: PANC-1, 168 h
[6] = target: T2, von Hippel-Lindau disease tumor suppressor/Son of sevenless homolog 1 (Homo sapiens); experiment: PROTAC activity at VHL/SOS1 in human HCT-116 cells harboring KRAS G13D mutant assessed as induction of SOS1 degradation at 1 uM incubated for 2 to 4 hrs by Immunoblot analysis; format: cell-based; settings: time 2-4 hrs
[7] = target: T3, Son of sevenless homolog 1 (Homo sapiens) (UniProt Q07889); experiment: Induction of SOS1 degradation in human ASPC1 cells at 1 uM incubated for 6 hrs by quantitative proteomics analysis; format: cell-based
T3 sequence (whole entry): T1 sequence (Q07889 whole entry)

[8] = AUC in BALB/c mouse at 10 mg/kg, ip measured upto 24 hrs by LC-MS/MS analysis; format: ADME, organism-based; set-up: time < 24 hrs, dose 10 mg/kg, route ip; settings: in vivo
ASPC1 = experiment: Antitumor activity against human ASPC1 cells harboring KRAS G12D mutant xenografted in BALB/c nude mouse assessed as tumor growth inhibition at 10 mg/kg, ip administered once daily for 3 weeks relative to control; format: functional; settings: ASPC1, 504 h, read-out: TGI
[9] = target: T2, von Hippel-Lindau disease tumor suppressor/Son of sevenless homolog 1 (Homo sapiens); experiment: In vivo PROTAC activity at VHL/SOS1 in human ASPC1 cells harboring KRAS G12D mutant xenografted BALB/c nude mouse assessed as induction of SOS1 degradation administered intraperitoneally once daily for 3 weeks by Immunoblot analysis; format: functional; settings: dose 10-20 mg/kg, route ip
[10] = target: T2, von Hippel-Lindau disease tumor suppressor/Son of sevenless homolog 1 (Homo sapiens); experiment: In vivo PROTAC activity at VHL/SOS1 in human ASPC1 cells harboring KRAS G12D mutant xenografted BALB/c nude mouse assessed as decrease in phosphorylated ERK expression at 10 to 20 mg/kg, ip administered once daily for 3 weeks by immunohistochemistry analysis; format: functional, organism-based; settings: dose 10-20 mg/kg
[11] = target: T2, von Hippel-Lindau disease tumor suppressor/Son of sevenless homolog 1 (Homo sapiens); experiment: In vivo PROTAC activity at VHL/SOS1 in human SW620 cells harboring KRAS G12V mutant xenografted BALB/c nude mouse assessed as decrease in phosphorylated ERK expression at 10 to 20 mg/kg, ip administered once daily for 2 weeks by Immunoblot analysis; format: functional, organism-based; settings: SW-620, dose 10-20 mg/kg
[12] = target: T2, von Hippel-Lindau disease tumor suppressor/Son of sevenless homolog 1 (Homo sapiens); experiment: In vivo PROTAC activity at VHL/SOS1 in human SW620 cells harboring KRAS G12V mutant xenografted BALB/c nude mouse assessed as decrease in phosphorylated ERK expression in tumor at 10 to 20 mg/kg, ip administered once daily for 2 weeks by immunohistochemistry analysis; format: functional, organism-based; settings: SW-620, dose 10-20 mg/kg

## COc1cc2nc(C)nc(N[C@H](C)c3cc(N)cc(C(F)(F)F)c3)c2cc1C1CCN(C(=O)CCCCCC(=O)N[C@H](C(=O)N2C[C@H](O)C[C@H]2C(=O)N[C@@H](C)c2ccc(-c3scnc3C)cc2)C(C)(C)C)CC1
CAL-62
  inhibition: inactive
[1]
  Activity: Active
[2]
  Kd: 8.13 nM
[3]
  Emax: > 95%
[4]
  Emax: > 95%
[5]
  Emax: > 95%
PANC-1
  IC50: 13.8 nM
[6]
  Activity: Active
[7]
  Activity: Active
[8]
  AUC at 24 h: 14100 ng·h/mL
ASPC1
  inhibition in vivo at 10 mg/kg: 38.8%
[9]
  Activity: Dose-Dependent Effect
[10]
  Activity: Active
[11]
  Activity: Active
[12]
  Activity: Active
